Test results from patent US20250382302A1, “Anticancer polyheterocyclic compounds and associated methods” (University of Denver, priority 2024, published 2025).

Assays:
[1] = system: KM12; conditions: Colon Cancer
[2] = system: KM12; test: cells; conditions: Homo sapiens; for GI50: KM12; for CC50: KM12, read-out: LC50
[3] = system: K-562; test: NCI five-dose testing, K-562; conditions: for GI50 / CC50: Homo sapiens; for GI50: K562; for CC50: K562, read-out: LC50; for TGI: Leukemia, K-562
[4] = system: T-47D; test: NCI five-dose testing, T-47D; conditions: for TGI: Breast Cancer, T-47D; for GI50 / CC50: Homo sapiens, T47D; for CC50: read-out: LC50
[5] = system: MOLT-4; test: NCI five-dose testing, MOLT-4; conditions: for GI50 / CC50: Homo sapiens; for GI50 / TGI: MOLT-4; for CC50: MOLT-4, read-out: LC50; for TGI: Leukemia
[6] = system: OVCAR-3; test: NCI five-dose testing, OVCAR-3; conditions: for GI50 / CC50: Homo sapiens; for GI50 / TGI: OVCAR-3; for CC50: OVCAR-3, read-out: LC50; for TGI: Ovarian Cancer
[7] = system: CCRF-CEM; test: NCI five-dose testing, CCRF-CEM; conditions: for GI50 / CC50: Homo sapiens; for CC50: read-out: LC50; for TGI: Leukemia
[8] = system: NCI-H522; test: NCI five-dose testing, NCI-H522; conditions: for GI50 / CC50: Homo sapiens; for GI50 / TGI: NCI-H522; for CC50: NCI-H522, read-out: LC50; for TGI: Non-Small Cell Lung Cancer
[9] = system: HL-60(TB); test: NCI five-dose testing, HL-60(TB); conditions: for GI50 / CC50: Homo sapiens; for GI50: HL-60; for CC50: HL-60, read-out: LC50; for TGI: Leukemia, HL-60(TB)
[10] = system: RPMI-8226; test: NCI five-dose testing, RPMI-8226; conditions: for GI50 / CC50: Homo sapiens; for GI50 / TGI: RPMI-8226; for CC50: RPMI-8226, read-out: LC50; for TGI: Leukemia
[11] = system: MDA-MB-468; test: NCI five-dose testing, MDA-MB-468; conditions: for TGI: Breast Cancer; for TGI / GI50: MDA-MB-468; for GI50 / CC50: Homo sapiens; for CC50: MDA-MB-468, read-out: LC50
[12] = system: NCI-H23; conditions: Non-Small Cell Lung Cancer
[13] = system: SNB-75; conditions: CNS Cancer
[14] = system: UACC-62; conditions: Melanoma
[15] = system: OVCAR-8; conditions: Ovarian Cancer
[16] = system: ACHN; conditions: Renal Cancer
[17] = system: UO-31; conditions: Renal Cancer
[18] = system: NCI-H23; test: cells; conditions: Homo sapiens
[19] = system: SNB-75; test: cells; conditions: Homo sapiens
[20] = system: UACC-62; test: cells; conditions: Homo sapiens
[21] = system: OVCAR-8; test: cells; conditions: Homo sapiens
[22] = system: ACHN; test: cells; conditions: Homo sapiens
[23] = system: UO-31; test: cells; conditions: Homo sapiens
[24] = system: MCF7; test: NCI five-dose testing, MCF7; conditions: for TGI: Breast Cancer; for TGI / GI50: MCF7; for GI50 / CC50: Homo sapiens; for CC50: MCF7, read-out: LC50
[25] = system: OVCAR-4; test: NCI five-dose testing, OVCAR-4; conditions: for GI50 / CC50: Homo sapiens; for GI50 / TGI: OVCAR-4; for CC50: OVCAR-4, read-out: LC50; for TGI: Ovarian Cancer
[26] = system: SR; test: NCI five-dose testing, SR; conditions: for GI50 / CC50: Homo sapiens; for CC50: read-out: LC50; for TGI: Leukemia
[27] = system: SK-MEL-2; test: NCI five-dose testing, SK-MEL-2; format: cell-based; conditions: Melanoma
[28] = system: SK-MEL-5; test: NCI five-dose testing, SK-MEL-5; format: cell-based; conditions: Melanoma; for GI50 / CC50: Homo sapiens; for CC50: read-out: LC50 (the source's name)
[29] = system: IGROV1; test: NCI five-dose testing, IGROV1; format: cell-based; conditions: for GI50 / CC50: Homo sapiens, IGROV-1, Ovarian Cancer; for CC50: read-out: LC50 (the source's name); for TGI: Ovarian Cancer
[30] = system: EKVX; test: NCI five-dose testing, EKVX; format: cell-based; conditions: Non-Small Cell Lung Cancer
[31] = system: RXF 393; test: NCI five-dose testing, RXF 393; format: cell-based; conditions: Renal Cancer
[32] = Homo sapiens, read-out: LC50 (the source's name)

## COc1cccc(OC)c1N(Cc1ccoc1)C(=O)C(=O)NC1=CC(=O)c2ccccc2C1=O
[1]
  TGI: 3.51 × 10^−6
[2]
  GI50: 1250 nM
  CC50: 9840 nM
[3]
  GI50: 1460 nM
  CC50: 5370 nM
  TGI: 2.80 × 10^−6
[4]
  TGI: 2.81 × 10^−6
  GI50: 1480 nM
  CC50: 5340 nM
[5]
  GI50: 462 nM
  CC50: 3980 nM
  TGI: 1.57 × 10^−6
[6]
  GI50: 1180 nM
  CC50: 4960 nM
  TGI: 2.42 × 10^−6
[7]
  GI50: 437 nM
  CC50: 3890 nM
  TGI: 1.48 × 10^−6
[8]
  GI50: 1330 nM
  CC50: 5140 nM
  TGI: 2.61 × 10^−6
[9]
  GI50: 282 nM
  CC50: 1480 nM
  TGI: 5.69 × 10^−7
[10]
  GI50: 1300 nM
  CC50: 5120 nM
  TGI: 2.57 × 10^−6
[11]
  TGI: 8.99 × 10^−7
  GI50: 251 nM
  CC50: 3020 nM

## COC1C[C@H]2C[C@]34CC3[C@H]2[C@]23C4C4=C(C(=O)c5ccccc5C4=O)N2C(=O)C(=O)N13 (stereo partly drawn)
[6]
  GI50: 1490 nM
  CC50: 19600 nM
  TGI: 4.93 × 10^−6
[11]
  TGI: 3.18 × 10^−6
  GI50: 1310 nM
  CC50: 7730 nM

## C=CCN(C(=O)C(=O)NC1=CC(=O)c2ccccc2C1=O)c1c(OC)cccc1OC
[12]
  TGI: 2.79 × 10^−6
[1]
  TGI: 2.28 × 10^−6
[13]
  TGI: 2.93 × 10^−6
[14]
  TGI: 2.81 × 10^−6
[15]
  TGI: 2.70 × 10^−6
[16]
  TGI: 2.66 × 10^−6
[17]
  TGI: 2.76 × 10^−6
[18]; NCI-H23
  GI50: 1440 nM
[18]; NCI-H23, read-out: LC50
  CC50: 5390 nM
[2]
  GI50: 626 nM
  CC50: 6390 nM
[19]; SNB-75
  GI50: 1430 nM
[19]; SNB-75, read-out: LC50
  CC50: 5990 nM
[20]; UACC-62
  GI50: 1480 nM
[20]; UACC-62, read-out: LC50
  CC50: 5350 nM
[21]; OVCAR-8
  GI50: 1360 nM
[21]; OVCAR-8, read-out: LC50
  CC50: 5360 nM
[22]
  GI50: 1350 nM
[22]; read-out: LC50
  CC50: 5210 nM
[23]; UO-31
  GI50: 1440 nM
[23]; UO-31, read-out: LC50
  CC50: 5310 nM
[24]
  TGI: 2.78 × 10^−6
  GI50: 1450 nM
  CC50: 5320 nM
[4]
  TGI: 2.81 × 10^−6
  GI50: 1480 nM
  CC50: 5330 nM
[5]
  GI50: 441 nM
  CC50: 4040 nM
  TGI: 1.62 × 10^−6
[6]
  GI50: 1030 nM
  CC50: 4730 nM
  TGI: 2.21 × 10^−6
[25]
  GI50: 1220 nM
  CC50: 4980 nM
  TGI: 2.46 × 10^−6
[7]
  GI50: 781 nM
  CC50: 4550 nM
  TGI: 2.04 × 10^−6
[8]
  GI50: 1250 nM
  CC50: 5030 nM
  TGI: 2.51 × 10^−6
[9]
  GI50: 249 nM
  CC50: 1520 nM
  TGI: 5.42 × 10^−7
[10]
  GI50: 1040 nM
  CC50: 4740 nM
  TGI: 2.22 × 10^−6
[11]
  TGI: 8.97 × 10^−7
  GI50: 275 nM
  CC50: 3000 nM

## COC1=C[C@H]2[C@H]3C[C@@H]1CN1C(=O)C(=O)N4C5=C(C(=O)c6ccccc6C5=O)[C@]3(OC)[C@]214
[26]
  GI50: 1400 nM
  CC50: 5310 nM
  TGI: 2.72 × 10^−6
[24]
  TGI: 2.94 × 10^−6
  GI50: 921 nM
  CC50: 8870 nM
[10]
  GI50: 803 nM
  CC50: 4710 nM
  TGI: 2.05 × 10^−6

## C[C@]12C3=C(C(=O)c4ccccc4C3=O)N3C(=O)C(=O)N4C[C@H]5C[C@@]16CC6[C@@]5(C)[C@@]432 (stereo partly drawn)
[27]; Homo sapiens
  GI50: 1270 nM
[27]; [32]
  CC50: 5200 nM
[27]
  TGI: 2.57 × 10^−6
[28]
  GI50: 1300 nM
  CC50: 7320 nM
  TGI: 3.08 × 10^−6
[25]
  GI50: 1360 nM
  CC50: 5170 nM
  TGI: 2.65 × 10^−6
[7]
  GI50: 1230 nM
  CC50: 5000 nM
  TGI: 2.48 × 10^−6
[9]
  GI50: 267 nM
  CC50: 3280 nM
  TGI: 1.06 × 10^−6
[11]
  TGI: 1.55 × 10^−6
  GI50: 384 nM
  CC50: 4030 nM

## C=CCN(C(=O)C(=O)NC1=CC(=O)c2ccccc2C1=O)c1ccsc1C(=O)OC
[3]
  GI50: 1450 nM
  CC50: 5280 nM
  TGI: 2.77 × 10^−6
[4]
  TGI: 2.61 × 10^−6
  GI50: 1320 nM
  CC50: 5140 nM
[5]
  GI50: 1110 nM
  CC50: 4810 nM
  TGI: 2.31 × 10^−6
[7]
  GI50: 1300 nM
  CC50: 5070 nM
  TGI: 2.57 × 10^−6
[8]
  GI50: 1450 nM
  CC50: 5280 nM
  TGI: 2.77 × 10^−6
[9]
  GI50: 1080 nM
  CC50: 4790 nM
  TGI: 2.27 × 10^−6
[10]
  GI50: 1470 nM
  CC50: 5280 nM
  TGI: 2.79 × 10^−6
[11]
  TGI: 9.41 × 10^−7
  GI50: 226 nM
  CC50: 3090 nM

## COC1=C[C@H]2C3=C(C(=O)c4ccccc4C3=O)N3C(=O)C(=O)N(Cc4ccco4)[C@]23C=C1
[28]
  GI50: 1130 nM
  CC50: 9080 nM
  TGI: 3.21 × 10^−6
[29]
  GI50: 1380 nM
  CC50: ≥ 100000 nM
  TGI: 6.38 × 10^−6
[11]
  TGI: 1.35 × 10^−6
  GI50: 177 nM
  CC50: 7960 nM

## C=CCCOC1=C[C@H]2C3=C(C(=O)c4ccccc4C3=O)N3C(=O)C(=O)N(Cc4ccc(C)cc4)[C@]23C=C1
[26]
  GI50: 862 nM
  CC50: ≥ 100000 nM
  TGI: 1.00 × 10^−4
[25]
  GI50: 875 nM
  CC50: ≥ 100000 nM
  TGI: 7.04 × 10^−6
[11]
  TGI: 6.86 × 10^−7
  GI50: 20.9 nM
  CC50: ≥ 100000 nM

## COC1=CC2C3=C(C(=O)c4ccccc4C3=O)N3C(=O)C(=O)N(Cc4ccsc4)[C@]23C=C1 (stereo partly drawn)
[30]; Homo sapiens
  GI50: 1110 nM
[30]; [32]
  CC50: 25700 nM
[30]
  TGI: 5.75 × 10^−6
[28]
  GI50: 10 nM
  CC50: 6040 nM
  TGI: 2.16 × 10^−6
[29]
  GI50: 1270 nM
  CC50: 70500 nM
  TGI: 1.40 × 10^−5
[31]; Homo sapiens
  GI50: 1430 nM
[31]; [32]
  CC50: 9920 nM
[31]
  TGI: 3.76 × 10^−6
[24]
  TGI: 5.88 × 10^−6
  GI50: 1260 nM
  CC50: 25200 nM
[11]
  TGI: 8.16 × 10^−7
  GI50: 113 nM
  CC50: 9320 nM

## O=C1C2=C(C(=O)c3ccccc31)N1C(=O)N(Cc3ccccc3)C[C@@]13C=C[C@@H]2O3
[4]
  TGI: 3.26 × 10^−6
  GI50: 1390 nM
  CC50: 7640 nM
[11]
  TGI: 1.59 × 10^−6
  GI50: 472 nM
  CC50: 4080 nM

## O=C1C=C(NC(=O)[C@H](Cc2ccccc2)n2cccc2)C(=O)c2ccccc21
[4]
  TGI: 2.74 × 10^−6
  GI50: 1420 nM
  CC50: 5260 nM
[5]
  GI50: 685 nM
  CC50: 4290 nM
  TGI: 1.84 × 10^−6
[7]
  GI50: 1110 nM
  CC50: 4840 nM
  TGI: 2.32 × 10^−6
